From patent publication US12202841B2, “Therapeutic agents for enhancing epithelial and/or endothelial barrier function” (ARTUS THERAPEUTICS, INC., priority 2022, dated 2025)
Entries after “also recorded” stand apart in the source; their conditions may differ.

Assays:
[1] = system: murine DSS model of ulcerative colitis; assay: Murine DSS model of ulcerative colitis (acute); format: in vivo, mouse; conditions: for efficacy in the murine DSS model of colitis / DSS-elicited body weight loss / disease activity index (DAI) / colon length: 20 mg/kg oral gavage on days 4, 6, 8, 10; for efficacy in the murine DSS model of colitis: 2.5% DSS, C57BL/6 mice; for DSS-elicited body weight loss: FIG. 6E; for disease activity index (DAI): FIG. 6F; for colon length: day 12, FIG. 6B, 6C
Procedure: FIGS. 6A-F illustrate efficacy of ARTX-339, ARTX-405A, ARTX-413, and ARTX-425P1 in the murine DSS model of ulcerative colitis. A. C57BL/6 mice (7-8-week old mice) were supplied with 2.5% DSS in their drinking water for 7 days. Starting on day 4 post DSS treatment, mice were dosed once every other day with 100 μL vehicle (0.25% sodium carboxymethylcellulose used in the formulation of ARTX compounds), or 100 μL ARTX-339, ARTX-405A, ARTX-413, or ARTX-425P1 at 20 mg/kg body weight by oral gavage on days 4, 6, 8, and 10. Mice were euthanized on day 12. FITC dextran was administered to the mice via oral gavage 4 hours preceding euthanization. Following euthanization, colons were dissected, and their length measured. B. Measurements of colon length. C. Photographs of dissected colons. D. Measurement of FITC-dextran in serum following euthanization. […] Higher levels of serum FITC-dextran following DSS-treatment is an indication of a loss of barrier function. E. Body weight was measured every other day starting at day 0 with the initiation of DSS treatment. F. Disease activity index (DAI) scores were assigned every other day. The higher the DAI score, the worse the symptoms. **** indicates p<0.0001; *** indicates p<0.001; ** indicates=p<0.01.
A murine dextran sodium sulfate (DSS)-elicited model of ulcerative colitis was utilized to measure the efficacy of compounds in vivo. Oral administration of DSS in drinking water, a chemical colitogen with anticoagulant properties, leads to disruption of gut epithelium causing enhanced gut permeability, inflammation, and severe damage of gut barrier function^71,72. The rationale for using the murine DSS^71,72 model of UC is that it is a well-established gut epithelial barrier disrupting model that can be used to model both acute and chronic UC^70,71.
Starting on day 4 post DSS treatment, mice were dosed once every other day with 100 μL vehicle (0.25% sodium carboxymethylcellulose used in the formulation of ARTX compounds), or 100 μL ARTX-339, ARTX-405A, ARTX-413, or ARTX-425P1 at 20 mg/kg body weight by oral gavage on days 4, 6, 8, and 10. Mice were euthanized on day 12. FITC dextran was administered to the mice via oral gavage 4 hours prior to euthanization. Following euthanization, colons were dissected, and their lengths were measured.

hERG = hERG (Homo sapiens, UniProt Q12809); assay: hERG assay
Procedure: (§1) Step 4: Toxicity studies, including hERG and Ames tests, are conducted on compounds.

Acute toxicity in rats = conditions: rat, in vivo
Text: (§2) However, potential genotoxicity of ARTX-86 is consistent with its planar structure, which may allow ARTX-86 to intercalate into the DNA double helix. It's possible that reactive metabolites of ARTX-86 are being formed by the S9 fraction and the ability of ARTX-86 to intercalate into the DNA helix delivers the radicals or other toxic metabolites directly to the DNA.

[2] = Preliminary PK studies in rats; conditions: rat, in vivo
Text: as §2

Cyp1A1 = assay: Activation of Cyp1A1 expression; format: cell-based
Procedure: (§3) Step 2: Selected compounds from step 1 were tested at a range of concentrations for activation of Cyp1A1 mRNA levels using qRT-PCR, for activation of Cyp1A1 enzymatic activity (ethoxyresorufin-O-deethylase (EROD) assay), or activation of an AhR-reporter gene driven by a so-called dioxin-response element (DRE) using commercially available kits. Activation of Cyp1A1 mRNA levels, activation of Cyp1A1 enzymatic activity, or activation of an AhR reporter gene construct driven by a DRE is generally considered to be indicative of a compound's ability to function as an AhR ligand. When activated by a ligand, cytosolic AhR translocates to the nucleus and dimerizes with the AhR nuclear translocator protein ARNT. The AhR/ARNT complex then binds to DREs to activate gene transcription.

Salmonella strains = assay: Ames test
Procedure: as §1, §2

[3] = system: TNBS-induced colitis in mice; assay: Murine TNBS model of ulcerative colitis; format: in vivo; conditions: TNBS mouse model of UC
Procedure: FIGS. 2A-D illustrates that UAS03 is efficacious in a mouse 2,4,6-trinitrobenzenesulfonic acid (TNBS) model when administered either pre- or post-TNBS treatment. Pre-treatment: Mice (n=10 per group) were given UAS03 orally QD (20 mg/kg) for 7 days followed by administration of TNBS. Mice were euthanized 72 h post-TNBS treatment. Post-treatment: Mice (n=10 per group) received UAS03 QD (20 mg/kg) 24, 48, and 72 h post-TNBS. A) Ratio of colon weight/length. B) Intestinal permeability evaluated using a FITC-dextran leakage assay. C) Serum levels of TNF-α measured using a standard ELISA method. D) Claudin-4 (Cldn4) expression in mouse colons. […] Error bars, ±SEM; ***p<0.001.
Intra-rectal administration of 2,4,6-Trinitrobenzenesulfonic acid (TNBS) induces CD4^+-dependent colitis in mice resulting in increased intestinal permeability, shortening of colons, and increased inflammation^70. […] The symptoms that were reversed included body weight loss, colon weight/length ratio (FIG. 2A), increased gut permeability (FIG. 2B), and enhanced levels of inflammatory cytokines (FIG. 2C)^44. […] The beneficial effects of UAS03 in TNBS-treated mice were not observed in either AhR^−/− or Nrf2^−/− mutant mice^44. […] UAS03 was also efficacious in both acute and chronic dextran sodium sulfate (DSS)-induced^71,72 colitis models^44. […]

[4] = In vitro safety pharmacology assays
AhR signaling pathway [5] = assay: Luciferase AhR-reporter gene (DRE) assay in human hepatic cells; format: cell-based; conditions: FIG. 7A
Procedure: as §3
(§4) In these experiments, human hepatic cells (FIG. 7A) or human intestinal epithelial cells (FIG. 7B) containing a luciferase AhR-reporter gene construct driven by a so-called dioxin-response element (DRE) were treated with various concentrations of ARTX-413 or with various concentrations of the well-studied AhR ligand β-naphthoflavone (BNF) using commercially available kits. Activation of Cyp1A1 mRNA levels, activation of Cyp1A1 enzymatic activity, or activation of an AhR reporter gene construct driven by a DRE is generally considered to be indicative of a compound's ability to function as an AhR ligand.

AhR signaling pathway [6] = assay: Luciferase AhR-reporter gene (DRE) assay in human intestinal epithelial cells; format: cell-based; conditions: FIG. 7B
Procedure: as §3, §4

[7] = system: TNBS-induced colitis in mice; conditions: cited from earlier work
[8] = system: bone marrow derived macrophages; conditions: cited from earlier work
[9] = system: DSS-induced colitis in mice; conditions: cited from earlier work
[10] = pH 2.0 in the presence of gastric enzymes; cited from earlier work
[11] = system: HT-29 and Caco-2 intestinal epithelial cell lines; conditions: RNA-seq and qRT-PCR; cited from earlier work
[12] = system: cytochrome P450 1A1 (Cyp1A1) and heme oxygenase 1 (HMOX1 or HO1) genes; conditions: cited from earlier work
[13] = system: LPS-elicited mouse peritonitis model; conditions: cited from earlier work
AhR = biological target: T1, AhR (Homo sapiens, UniProt P35869); conditions: published data; cited from earlier work
T1 sequence (P35869 11-848): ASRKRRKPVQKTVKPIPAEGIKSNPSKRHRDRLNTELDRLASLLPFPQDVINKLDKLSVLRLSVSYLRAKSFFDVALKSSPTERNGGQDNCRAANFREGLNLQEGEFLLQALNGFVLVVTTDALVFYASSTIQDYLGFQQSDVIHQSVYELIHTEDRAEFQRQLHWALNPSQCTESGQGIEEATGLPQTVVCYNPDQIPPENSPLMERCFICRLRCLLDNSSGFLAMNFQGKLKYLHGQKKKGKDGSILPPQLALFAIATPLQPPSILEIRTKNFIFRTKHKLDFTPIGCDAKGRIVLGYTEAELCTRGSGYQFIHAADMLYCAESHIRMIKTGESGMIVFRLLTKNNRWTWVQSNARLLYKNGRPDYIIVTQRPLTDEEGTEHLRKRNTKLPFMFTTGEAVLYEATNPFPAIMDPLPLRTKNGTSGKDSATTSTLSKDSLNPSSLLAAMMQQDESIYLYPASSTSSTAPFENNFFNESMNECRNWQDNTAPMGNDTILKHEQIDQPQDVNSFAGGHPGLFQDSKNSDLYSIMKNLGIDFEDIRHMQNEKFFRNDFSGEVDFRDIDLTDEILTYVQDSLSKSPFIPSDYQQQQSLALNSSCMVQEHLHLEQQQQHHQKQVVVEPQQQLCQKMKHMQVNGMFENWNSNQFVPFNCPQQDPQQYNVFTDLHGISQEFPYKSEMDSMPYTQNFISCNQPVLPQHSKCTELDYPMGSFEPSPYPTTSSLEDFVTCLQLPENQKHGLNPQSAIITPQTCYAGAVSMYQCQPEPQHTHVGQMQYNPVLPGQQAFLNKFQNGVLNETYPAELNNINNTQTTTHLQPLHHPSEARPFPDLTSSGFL

[14] = extensively tested; cited from earlier work

Chain of hERG (Q12809 whole entry): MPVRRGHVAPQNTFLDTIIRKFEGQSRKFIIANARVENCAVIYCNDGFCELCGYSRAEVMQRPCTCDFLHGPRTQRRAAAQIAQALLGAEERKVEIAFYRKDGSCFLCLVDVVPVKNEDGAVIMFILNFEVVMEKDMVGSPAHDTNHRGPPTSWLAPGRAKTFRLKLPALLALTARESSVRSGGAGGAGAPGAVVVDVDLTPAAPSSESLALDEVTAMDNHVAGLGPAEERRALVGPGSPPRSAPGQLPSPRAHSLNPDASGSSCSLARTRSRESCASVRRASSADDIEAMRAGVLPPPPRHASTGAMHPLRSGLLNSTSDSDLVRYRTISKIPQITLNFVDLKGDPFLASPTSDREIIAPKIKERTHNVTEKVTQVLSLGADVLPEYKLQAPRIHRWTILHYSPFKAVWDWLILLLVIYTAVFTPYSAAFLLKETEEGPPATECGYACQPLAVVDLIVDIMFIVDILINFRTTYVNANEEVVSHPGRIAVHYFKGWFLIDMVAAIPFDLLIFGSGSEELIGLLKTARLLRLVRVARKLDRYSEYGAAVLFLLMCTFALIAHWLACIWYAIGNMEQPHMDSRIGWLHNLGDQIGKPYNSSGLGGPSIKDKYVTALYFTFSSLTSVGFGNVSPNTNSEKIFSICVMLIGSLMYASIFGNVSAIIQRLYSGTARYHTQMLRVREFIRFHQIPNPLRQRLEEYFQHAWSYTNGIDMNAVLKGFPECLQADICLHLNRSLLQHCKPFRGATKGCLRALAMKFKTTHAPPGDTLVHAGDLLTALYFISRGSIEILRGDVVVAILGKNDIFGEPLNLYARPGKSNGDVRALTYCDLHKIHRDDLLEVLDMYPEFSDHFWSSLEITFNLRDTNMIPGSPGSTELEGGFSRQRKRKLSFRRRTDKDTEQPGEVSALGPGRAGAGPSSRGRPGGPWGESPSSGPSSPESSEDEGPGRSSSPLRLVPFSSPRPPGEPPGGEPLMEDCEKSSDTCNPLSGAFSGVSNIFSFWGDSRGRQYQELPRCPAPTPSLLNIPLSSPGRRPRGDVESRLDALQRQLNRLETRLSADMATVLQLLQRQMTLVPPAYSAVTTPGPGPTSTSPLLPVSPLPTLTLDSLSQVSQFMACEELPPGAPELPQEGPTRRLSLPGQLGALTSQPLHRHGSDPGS

CC(C)[C@@H]1Oc2cc(O)ccc2-c2ccc(F)cc21 (single isomer, unassigned) [ARTX-425P1]
efficacy in the murine DSS model of colitis [1]: exhibited efficacy
DSS-elicited body weight loss [1]: highly statistically significant
disease activity index (DAI) [1]: highly statistically significant
colon length [1]: a statistically significant increase in colon length was not observed

Oc1ccc2c(c1)OCc1cc(F)ccc1-2 [ARTX-86]
cardiotoxicity in hERG assay (hERG; up to 60 times the efficacious dose): not cardiotoxic
NOAEL (Acute toxicity in rats): 1000 mg/kg/day
MTD (Acute toxicity in rats; acute toxicity): > 2000 mg/kg
half-life ([2]; 20 mg/kg): 2.22 ± 0.5 h
Cmax ([2]; dosed at 20 mg/kg): 92 ± 15 ng/mL
activating the expression of Cyp1A1, compared with UroA and UAS03 (Cyp1A1): comparably active as UroA and UAS03
Ames test result (Salmonella strains; one of the Salmonella strains, with / without liver S9 enzymes): tested positive in the presence but not the absence of liver S9 enzymes
efficacy compared with UAS03 ([1]; DSS mouse model of UC): equally efficacious as UAS03
efficacy compared with UAS03 [3]: equally efficacious as UAS03

Oc1cc(O)c2c(c1)C1(CCCC1)c1cc(F)ccc1-2 [ARTX-405A, 7′-fluorospiro[cyclopentane-1,9′-fluorene]-2′,4′-diol]
efficacy in the murine DSS model of colitis [1]: exhibited efficacy
DSS-elicited body weight loss [1]: highly effective
disease activity index (DAI) [1]: highly effective
colon length [1]: highly effective

Oc1ncc2c(n1)OCc1cc(F)ccc1-2 [ARTX-413, 8-fluoro-6H-isochromeno[3,4-d]pyrimidin-3-ol]
off-target effects [4]: did not identify any significant off-target effects
hERG inhibition / risk of cardiotoxicity (hERG; FIG. 8): low risk of cardiotoxicity
activation of AhR reporter gene (AhR signaling pathway [5]): activate the AhR signaling pathway
activation of AhR reporter gene (AhR signaling pathway [6]): activate the AhR signaling pathway
Ames test result (Salmonella strains; concentrations as high as 1.0 mg/mL): non-genotoxic
efficacy in the murine DSS model of colitis [1]: exhibited efficacy
DSS-elicited body weight loss [1]: highly effective
disease activity index (DAI) [1]: highly effective
colon length [1]: highly effective

Oc1ccc2c(c1)COc1cc(O)ccc1-2 [UAS03]
potency relative to UroA ([7]; TNBS model): about 10 fold
beneficial effects in AhR−/− or Nrf2−/− mutant mice ([7]; TNBS-treated AhR−/− or Nrf2−/− mice): not observed
claudin 4 (Cldn4) expression / protein levels ([7]; TNBS-treated mice, colons): induced the expression; also recorded: reversed a dramatic decrease
UC symptoms (body weight loss, colon weight/length ratio, gut permeability, inflammatory cytokines) ([7]; orally QD or BID for three days following TNBS, 20 mg/kg): dramatically reversed
development of TNBS-elicited symptoms ([7]; pre-treated QD for 7 days at 20 mg/kg): blocked
levels of LPS-induced TNF-α, IL-6, CXCL-1, and IL-1β [8]: markedly decreased
protection in chronic DSS model ([9]; 4 cycles of 2% DSS, 90 day experiment, UAS03 QD 20 mg/kg): protected against DSS-induced chronic colitis
efficacy in acute and chronic DSS-induced colitis models ([9]; mouse, in vivo): efficacious
time stable [10]: at least 12 hours
expression of tight junction proteins claudin 4, ZO-1, and occludin 1 [11]: upregulates
expression of Cyp1A1 and HO1 genes [12]: activated
levels of LPS-induced TNF-α, IL-6, CXCL-1, and IL-1β [13]: markedly decreased

O=c1oc2cc(O)ccc2c2ccc(O)cc12 [UroA, Urolithin A]
AhR ligand activity (AhR): AhR ligand that activates the AhR signaling pathway
genotoxicity [14]: no indications of genotoxicity have been reported
hydrolysis [10]: rapidly hydrolyzed
